Target: T1, human DGAT2 (Homo sapiens, UniProt Q96PD7)
T1 construct: made in house; host or cells: Sf-9 insect cells (baculovirus), membrane fraction
T1 sequence (Q96PD7 1-388): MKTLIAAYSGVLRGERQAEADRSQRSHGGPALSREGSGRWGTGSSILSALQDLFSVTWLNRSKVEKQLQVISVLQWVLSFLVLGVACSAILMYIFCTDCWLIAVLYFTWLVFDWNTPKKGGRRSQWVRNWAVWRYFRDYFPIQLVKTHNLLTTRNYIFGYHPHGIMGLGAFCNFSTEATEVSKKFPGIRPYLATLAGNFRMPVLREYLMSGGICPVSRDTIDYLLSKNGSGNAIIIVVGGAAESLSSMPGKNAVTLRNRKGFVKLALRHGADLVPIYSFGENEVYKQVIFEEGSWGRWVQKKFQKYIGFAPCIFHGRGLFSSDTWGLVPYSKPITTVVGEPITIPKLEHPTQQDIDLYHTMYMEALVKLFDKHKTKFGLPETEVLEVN
Assay: DGAT2 Enzymatic Activity Assay
Assay type: biochemical
Conditions: membrane prep of Sf-9 insect cells expressing hDGAT2; 13C18-triolein product by LC/MS/MS; 25 μM diolein, 5 μM 13C oleoyl-CoA
Procedure: Sf-9 insect cells were maintained in Grace's insect cell culture medium with 10% heated-inactivated fetal bovine serum, 1% Pluronic F-68 and 0.14 μg/ml Kanamycine sulfate at 27° C. in a shaker incubator. After infection with untagged baculovirus expressing human DGAT2 (hDGAT2) at multiplicity of infection (MOI) 3 for 48 hours, cells were harvested. Cell pellets were suspended in buffer containing 10 mM Tris-HCl pH 7.5, 1 mM EDTA, 250 mM sucrose and Complete Protease Inhibitor Cocktail (Sigma Aldrich), and sonicated on ice. Cell debris were removed by centrifugation at 2000×g for 15 minutes. Membrane fractions were isolated by ultracentrifugation (100,000×g), resuspended in the same buffer, and frozen (−80° C.) for later use. The protein concentration was determined with the Pierce™ BCA Protein Assay Kit (Thermo Fisher Scientific).
LC/MS/MS analyses were performed using Thermal Fisher's LX4-TSQ Vantage system. This system consists of an Agilent binary high-performance liquid chromatography (HPLC) pump and a TSQ Vantage triple quadrupole MS/MS instrument. For each sample, 2 μL samples from the top organic layer of in-plate liquid-liquid extraction were injected onto a Thermo Betabasic C4 column (2.1 mm×20 mm, 5 μm particle size). The samples were then eluted using the following conditions; mobile phase: Isopropanol:acetonitrile/10 mM ammonium formate=50/35/15 (v/v/v), flow rate: 0.8 mL/min, temperature: 25° C. Data was acquired in positive mode using a heated electrospray ionization (HESI) interface. […] The peak area was integrated by Xcalibur Quan software. The ratio between the ^13C18triolein generated in the reaction and spiked in internal standard ^13C21-triolein was used to generate percentage inhibition and IC50 values. Compound percentage inhibition was calculated by the following formula: Inhibition %=1−[(compound response−low control)/(high control−low control)]×100%.
DGAT2 activity was determined by measuring the amount of enzymatic product ^13C18-triolein (^13C-1,2,3-Tri(cis-9-octadecenoyl)glycerol) using the membrane prep mentioned above. The assay was carried out in ABgene 384-well assay plates in a final volume of 25 μL at rt.

Compound | IC50 [nM]
CCc1c(C(=O)NC2(C)CCS(=O)(=O)CC2)nn2ccc(Oc3ncccc3OCC(F)(F)F)cc12 [Example 46, 3-Ethyl-N-(4-methyl-1,1-dioxidotetrahydro-2H-thiopyran-4-yl)-5-((3-(2,2,2-trifluoroethoxy)pyridin-2-yl)oxy)pyrazolo[1,5-a]pyridine-2-carboxamide] | 17
CCc1c(C(=O)NC2(C)CS(=O)(=O)C2)nn2ccc(Oc3ncccc3OCC(F)(F)F)cc12 [Example 47, 3-Ethyl-N-(3-methyl-1,1-dioxidothietan-3-yl)-5-((3-(2,2,2-trifluoroethoxy)pyridin-2-yl)oxy)pyrazolo[1,5-a]pyridine-2-carboxamide] | 257
CC(C)c1c(C(=O)NC2(C)CCS(=O)(=O)CC2)nn2ccc(Oc3ncccc3OCC(F)(F)F)cc12 [Example 48, 3-Isopropyl-N-(4-methyl-1,1-dioxidotetrahydro-2H-thiopyran-4-yl)-5-((3-(2,2,2-trifluoroethoxy)pyridin-2-yl)oxy)pyrazolo[1,5-a]pyridine-2-carboxamide] | 46
CC1(NC(=O)c2nn3ccc(Oc4ncccc4OCC(F)(F)F)cc3c2C(F)F)CCS(=O)(=O)CC1 [Example 49, 3-(Difluoromethyl)-N-(4-methyl-1,1-dioxidotetrahydro-2H-thiopyran-4-yl)-5-((3-(2,2,2-trifluoroethoxy)pyridin-2-yl)oxy)pyrazolo[1,5-a]pyridine-2-carboxamide] | 973
CC1(NC(=O)c2nn3ccc(Oc4ncccc4OCC(F)(F)F)cc3c2CO)CCS(=O)(=O)CC1 [Example 50, 3-(Hydroxymethyl)-N-(4-methyl-1,1-dioxidotetrahydro-2H-thiopyran-4-yl)-5-((3-(2,2,2-trifluoroethoxy)pyridin-2-yl)oxy)pyrazolo[1,5-a]pyridine-2-carboxamide] | 10
CC1(NC(=O)c2nn3ccc(Oc4ncccc4OCC(F)(F)F)cc3c2C(F)(F)F)CCS(=O)(=O)CC1 [Example 51, N-(4-Methyl-1,1-dioxidotetrahydro-2H-thiopyran-4-yl)-5-((3-(2,2,2-trifluoroethoxy)pyridin-2-yl)oxy)-3-(trifluoromethyl)pyrazolo[1,5-a]pyridine-2-carboxamide] | 828
CC1(NC(=O)c2nn3ccc(Oc4ncc(F)cc4OCC(F)(F)F)cc3c2C2CC2)CCS(=O)(=O)CC1 [Example 54, 3-cyclopropyl-5-((5-fluoro-3-(2,2,2-trifluoroethoxy)pyridin-2-yl)oxy)-N-(4-methyl-1,1-dioxidotetrahydro-2H-thiopyran-4-yl)pyrazolo[1,5-a]pyridine-2-carboxamide] | 48
CC1(NC(=O)c2nn3ccc(Oc4ncc(F)cc4OCC(F)(F)F)cc3c2N)CCS(=O)(=O)CC1 [Example 55, 3-Amino-5-((5-fluoro-3-(2,2,2-trifluoroethoxy)pyridin-2-yl)oxy)-N-(4-methyl-1,1-dioxidotetrahydro-2H-thiopyran-4-yl)pyrazolo[1,5-a]pyridine-2-carboxamide] | 16
CC1(NC(=O)c2cc3c(F)c(Oc4ncc(F)cc4OCC(F)(F)F)ccn3n2)CCS(=O)(=O)CC1 [Example 56, 4-Fluoro-5-((5-fluoro-3-(2,2,2-trifluoroethoxy)pyridin-2-yl)oxy)-N-(4-methyl-1,1-dioxidotetrahydro-2H-thiopyran-4-yl)pyrazolo[1,5-a]pyridine-2-carboxamide] | 20
Cc1c(Oc2ncc(F)cc2OCC(F)(F)F)ccn2nc(C(=O)NC3(C)CCS(=O)(=O)CC3)cc12 [Example 58, 5-((5-Fluoro-3-(2,2,2-trifluoroethoxy)pyridin-2-yl)oxy)-4-methyl-N-(4-methyl-1,1-dioxidotetrahydro-2H-thiopyran-4-yl)pyrazolo[1,5-a]pyridine-2-carboxamide] | 6.6
Cc1cc(Oc2ncc(F)cc2OCC(F)(F)F)cc2cc(C(=O)NC3(C)CCS(=O)(=O)CC3)nn12 [Example 59, 5-((5-Fluoro-3-(2,2,2-trifluoroethoxy)pyridin-2-yl)oxy)-7-methyl-N-(4-methyl-1,1-dioxidotetrahydro-2H-thiopyran-4-yl)pyrazolo[1,5-a]pyridine-2-carboxamide] | 6
Cc1cn2nc(C(=O)NC3(C)CCS(=O)(=O)CC3)cc2cc1Oc1ncc(F)cc1OCC(F)(F)F [Example 60, 5-((5-Fluoro-3-(2,2,2-trifluoroethoxy)pyridin-2-yl)oxy)-6-methyl-N-(4-methyl-1,1-dioxidotetrahydro-2H-thiopyran-4-yl)pyrazolo[1,5-a]pyridine-2-carboxamide] | 3.5
CC1(NC(=O)c2nn3ccc(Oc4ncc(Cl)cc4OCC(F)F)nc3c2F)CCS(=O)(=O)CC1 [Example 61, 5-((5-Chloro-3-(2,2-difluoroethoxy)pyridin-2-yl)oxy)-3-fluoro-N-(4-methyl-1,1-dioxidotetrahydro-2H-thiopyran-4-yl)pyrazolo[1,5-a]pyrimidine-2-carboxamide] | 133
CC1(NC(=O)c2cc3nc(Oc4ncc(Cl)cc4OCC(F)F)ccn3n2)CCS(=O)(=O)CC1 [Example 62, 5-((5-Chloro-3-(2,2-difluoroethoxy)pyridin-2-yl)oxy)-N-(4-methyl-1,1-dioxidotetrahydro-2H-thiopyran-4-yl)pyrazolo[1,5-a]pyrimidine-2-carboxamide] | 86
CC1(NC(=O)c2nc3cc(Oc4ncc(Cl)cc4OCC(F)(F)F)ccn3n2)CCS(=O)(=O)CC1 [Example 63, 7-((5-Chloro-3-(2,2,2-trifluoroethoxy)pyridin-2-yl)oxy)-N-(4-methyl-1,1-dioxidotetrahydro-2H-thiopyran-4-yl)-[1,2,4]triazolo[1,5-a]pyridine-2-carboxamide] | 349

Now from value to compound:

IC50 [nM] | Compound
165 | O=C(NC1(C(F)F)CCS(=O)(=O)CC1)c1nc2cc(Oc3ncc(Cl)cc3OCC(F)(F)F)ccn2n1 [Example 64, 7-((5-Chloro-3-(2,2,2-trifluoroethoxy)pyridin-2-yl)oxy)-N-(4-(difluoromethyl)-1,1-dioxidotetrahydro-2H-thiopyran-4-yl)-[1,2,4]triazolo[1,5-a]pyridine-2-carboxamide]
160 | O=C(NC1(CC(F)(F)F)CCS(=O)(=O)CC1)c1nc2cc(Oc3ncc(Cl)cc3OCC(F)(F)F)ccn2n1 [Example 65, 7-((5-Chloro-3-(2,2,2-trifluoroethoxy)pyridin-2-yl)oxy)-N-(1,1-dioxido-4-(2,2,2-trifluoroethyl)tetrahydro-2H-thiopyran-4-yl)-[1,2,4]triazolo[1,5-a]pyridine-2-carboxamide]
67 | CC1(NC(=O)c2nc3cc(Oc4ncc(Cl)cc4OCC(F)(F)F)ccn3n2)CS(=O)(=O)C1 [Example 66, 7-((5-Chloro-3-(2,2,2-trifluoroethoxy)pyridin-2-yl)oxy)-N-(3-methyl-1,1-dioxidothietan-3-yl)-[1,2,4]triazolo[1,5-a]pyridine-2-carboxamide]
3.3 | CC1(NC(=O)c2cc3nc(OCc4ncc(Cl)cc4OCC(F)F)ccn3n2)CCS(=O)(=O)CC1 [Example 67, 5-((5-Chloro-3-(2,2-difluoroethoxy)pyridin-2-yl)methoxy)-N-(4-methyl-1,1-dioxidotetrahydro-2H-thiopyran-4-yl)pyrazolo[1,5-a]pyrimidine-2-carboxamide]
> 9990 | COc1cccc(COc2ccn3nc(C(=O)NC4(C)CCS(=O)(=O)CC4)cc3n2)n1 [Example 68, 5-((6-Methoxypyridin-2-yl)methoxy)-N-(4-methyl-1,1-dioxidotetrahydro-2H-thiopyran-4-yl)pyrazolo[1,5-a]pyrimidine-2-carboxamide]
264 | CCOc1cccc(COc2ccn3nc(C(=O)NC4(C)CCS(=O)(=O)CC4)cc3n2)n1 [Example 69, 5-((6-Ethoxypyridin-2-yl)methoxy)-N-(4-methyl-1,1-dioxidotetrahydro-2H-thiopyran-4-yl)pyrazolo[1,5-a]pyrimidine-2-carboxamide]
82 | COc1ccc(Cl)c(COc2ccn3nc(C(=O)NC4(C)CCS(=O)(=O)CC4)cc3n2)n1 [Example 70, 5-((3-Chloro-6-methoxypyridin-2-yl)methoxy)-N-(4-methyl-1,1-dioxidotetrahydro-2H-thiopyran-4-yl)pyrazolo[1,5-a]pyrimidine-2-carboxamide]

Source: patent US20260193249A1, “PREPARATION OF PYRAZOLOPYRIDINE AND TRIAZOLOPYRIDINE DERIVATIVES AS NOVEL DIACYLGLYCERIDE O-ACYLTRANSFERASE 2 INHIBITORS” (Merck Sharp & Dohme LLC, priority 2022, published 2026)
